Test results as given in US20240293326A1, “CONTROLLED RELEASE FORMULATIONS FOR THE TREATMENT OF MALARIA” (KARICI DIAGNOSTICS INC., priority 2018, published 2024).

Assays:
[1] = Dissolution assay of tablets (release kinetics, SGF 2 h then SIF); format: physicochemical
Procedure: Dissolution assays of formulated monolithic tablets were done in simulated gastric fluid (SGF, pH 1.5) for 2 h and continued in simulated intestinal fluid (SIF, pH 6.8) as referred by USP method 40 (USP, 2017a).
The Pf (Pf, MD/Pf or CMS-Pf) release kinetics from different formulations (Pf, MD/Pf and CMS-Pf monolithic tablet dosage form) were recorded at 100 rpm and 37° C. using a Distek dissolution system 2100A (Betatek Inc., Markham, ON, Canada). At predetermined intervals, an established volume of samples (1 mL) was withdrawn from dissolution media, filtered (0.45 μm) and the released Pf was quantified by UV measurement at 280 nm.
CMS-Pf complexes were prepared as detailed above in Example 1. Briefly, CMS was dispersed at 8.5% in water. After homogenization and obtaining a homogenous suspension, an amount of 50 mL of CMS suspension was slowly added in 450 ml of Pf 21.5% previously dissolved in ethanol (60%). Similar operation was carried out for the CMS and for CMC (high viscosity) with a degree of substitution of 0.8. The final ratio Pf/carboxyl polymer (w/w) was respectively about of 96/4. The solutions were maintained under agitation at room temperature until spray-drying to obtain powders using the following parameters: 1) inlet temperature 150° C.; 2) outlet temperature 100° C.; 3) spray flow 500 L/h, and 4) aspirator setting at 38 m^3/h. During the drying process, the polymeric excipient/Pf suspension was continuously gently stirred to prevent sedimentation. The resulting powder was used to prepare monolithic tablets (12.5 mm diameter, 3.0 mm thickness) containing 400 mg of Pf by direct compaction. The kinetics of the drug release were recorded using the Distek™ dissolution (100 rpm) and the detection of Pf was monitored at 280 nm, first in a dissolution medium made of 1 L of SGF (pH 1.5) during 2 h. Then, the tablets were transferred in 1 L of SIF (pH 7.2) at 37° C.) (USP 32 method).
For each tablet, the dissolution was started in 1 L of SGF (pH 1.5) for 2h and followed in 1 L of SIF (pH 7.2) at 37° C., according to USP 32. The drug release kinetics were recorded using a Distek™ dissolution 2100A paddle system at 100 rpm.
The quantification of Pf was carried out at 280 nm, whereas the dosage of artemisinin was realized by spectrophotometry at 734 nm after filtration and dissolving artemisinin in the acetone/water (ratio 40:60) solvent containing ABTS (2,2′-azino-bis[3-ethylbenzothiazoline-6-sulphonate]).
Dissolution assay was done first in simulated gastric fluid (SGF, pH 1.5) for 2 h and then in simulated intestinal fluid (SIF, pH 6.8) as referred by USP method 40 (2017a). Release kinetics from different formulations were followed at 100 rpm and 37° C. using a Distek dissolution system 2100A (Betatek Inc., Markham, ON, Canada) with a Distek TCS 0200 (North Brunswick, NJ, USA). At predetermined intervals (0.5, 1, 2, 4, 6, 8 and10 h), released Pf and Arte were quantified using the appropriate method (described above).
For Pf dosage, a volume (5 mL) was withdrawn from dissolution media, properly filtered (0.45 μm) and diluted before absorbance measurement at 280 nm. To quantify released Arte, the insoluble precipitate was recuperated, washed several times to remove all Pf residues and quantified as previously described.
Dissolution assays was followed for each tablet first in simulated gastric fluid (SGF, pH 1.5) for 2 h and then continued in simulated intestinal fluid (SIF, pH 6.8) as referred by USP method 40 (USP, 2017c). Release kinetics from both formulation types (containing CMP-Pf or pCMC-Pf) were followed using a Distek dissolution system 2100A (Betatek Inc., Markham, ON, Canada) with a Distek TCS 0200 (North Brunswick, NJ, USA) at 100 rpm and 37° C. At predetermined intervals (0.5, 1, 2, 4, 6, 8, 10 and 12 h), released Pf and Arte from tablets were quantified by absorbancy at 280 nm (for Pf) and at 734 nm (for Arte, using ABTS•+ radical as probe reagent). […]

[2] = In vitro Arte and Pf interaction / stability in SGF (FTIR, NMR, antioxidant capacity); format: physicochemical; details: SGF pH 1.5, 37° C., 2 h, one agent in the presence of the other
Procedure: Since both bioactive agents, Art and Pf will be used in a combination therapy in the same dosage form, there is a risk of molecular interactions to be considered. […] These interactions could also cause a moderate loss of activity due to the partial degradation of the endoperoxide bridge of artemisinin. […] After incubation, Arte was separated from Pf by decantation, washed and dried before FTIR and RMN analyses; whereas the Pf solution (in presence or not of Arte) was filtered and the antioxidant capacity was evaluated as previously described in the section of antioxidant properties. In vitro interaction of Arte with CMC-Pf was evaluated in SGF. Arte and CMC-Pf were incubated in SGF (pH 1.5, at 37° C.) separately or one in the presence of each other (FIG. 31).

[3] = monolithic tablets with CMC-Pf or pCMC-Pf, Example 6

Time to completed release of Artemisinin ([1]; bi-layer tablet, Artemisinin 100 mg + Explotab layer, Example 3): 60 min
Art released after 2 h in SGF ([1]; monolithic tablet, 400 mg CMC/Pf + 100 mg artemisinin, Example 4): about 45%
Time to complete release of Arte ([1]; monolithic tablet, in SIF, Example 5): 8 h
Time to complete release of Art ([1]; monolithic tablet, Example 4): 8 h
Arte released after 2 h in SGF ([1]; monolithic tablet, Example 5): about 51%
Arte released after 2 h in SGF [1, 3]: about 51%
Time to complete release of Arte [1, 3]: 8 h
Degradation in SGF (FTIR, 1H NMR) ([2]; listed as Arte): No degradation
Degradation in SGF (FTIR, 1H NMR) ([2]; listed as artemisinin): no degradation
SMILES: C[C@@H]1CC[C@H]2[C@@H](C)C(=O)O[C@@H]3O[C@@]4(C)CC[C@@H]1[C@]32OO4 [Artemisinin]
